Activity coefficient data for 9 compounds are collected here from the NIST ThermoML archive (doi:10.1016/j.jct.2014.12.023).

This data set can be described thus: activity coefficient (dimensionless); of the first substance listed, at infinite dilution; xn = mol fraction of the nth substance listed. The conditions noted are these: 87.4 kPa, Liquid, Chromatography, x1 = 0.

Molecules are shown by their SMILES. Numbers after ± are expanded uncertainties.

With `Cc1ccccc1C` [1,2-dimethylbenzene] + O=S(=O)([N-]S(=O)(=O)C(F)(F)F)C(F)(F)F.O=S(=O)([N-]S(=O)(=O)C(F)(F)F)C(F)(F)F.c1ccc2cc(C[N+]3(CCCCCCCCC[N+]4(Cc5ccc6ccccc6c5)CCCC4)CCCC3)ccc2c1, the activity coefficient came out at 0.84 ± 0.039 (313 K), 0.852 ± 0.039 (323 K), 0.864 ± 0.04 (333 K) and 0.894 ± 0.041 (343 K).
On the same counts, the results for `CCCCCCCC` [octane] + O=S(=O)([N-]S(=O)(=O)C(F)(F)F)C(F)(F)F.O=S(=O)([N-]S(=O)(=O)C(F)(F)F)C(F)(F)F.c1ccc2cc(C[N+]3(CCCCCCCCC[N+]4(Cc5ccc6ccccc6c5)CCCC4)CCCC3)ccc2c1 are 8.51 ± 0.48, 7.57 ± 0.41, 7.4 ± 0.39 and 6.71 ± 0.37.
For the compound `c1ccncc1` [pyridine] + O=S(=O)([N-]S(=O)(=O)C(F)(F)F)C(F)(F)F.O=S(=O)([N-]S(=O)(=O)C(F)(F)F)C(F)(F)F.c1ccc2cc(C[N+]3(CCCCCCCCC[N+]4(Cc5ccc6ccccc6c5)CCCC4)CCCC3)ccc2c1, the activity coefficient reads like this: (313 K) 0.263 ± 0.028; (323 K) 0.266 ± 0.028; (333 K) 0.27 ± 0.028; (343 K) 0.287 ± 0.028.
On to `CCCCCCC` [heptane] + O=S(=O)([N-]S(=O)(=O)C(F)(F)F)C(F)(F)F.O=S(=O)([N-]S(=O)(=O)C(F)(F)F)C(F)(F)F.c1ccc2cc(C[N+]3(CCCCCCCCC[N+]4(Cc5ccc6ccccc6c5)CCCC4)CCCC3)ccc2c1, for which the activity coefficient (313 K) worked out at 6.72 ± 0.38, the activity coefficient (323 K) amounted to 5.97 ± 0.33, the activity coefficient (333 K) was determined as 5.44 ± 0.31 and the activity coefficient (343 K) came to 4.65 ± 0.29.
Regarding `CO` [methanol] + O=S(=O)([N-]S(=O)(=O)C(F)(F)F)C(F)(F)F.O=S(=O)([N-]S(=O)(=O)C(F)(F)F)C(F)(F)F.c1ccc2cc(C[N+]3(CCCCCCCCC[N+]4(Cc5ccc6ccccc6c5)CCCC4)CCCC3)ccc2c1, for the setting “313 K”, the activity coefficient came to 0.821 ± 0.038.
For `CCCCCC` [hexane] + O=S(=O)([N-]S(=O)(=O)C(F)(F)F)C(F)(F)F.O=S(=O)([N-]S(=O)(=O)C(F)(F)F)C(F)(F)F.c1ccc2cc(C[N+]3(CCCCCCCCC[N+]4(Cc5ccc6ccccc6c5)CCCC4)CCCC3)ccc2c1, the activity coefficient was 4.73 ± 0.24 (313 K) and 3.9 ± 0.2 (323 K).
As to `C1CCCCC1` [cyclohexane] + O=S(=O)([N-]S(=O)(=O)C(F)(F)F)C(F)(F)F.O=S(=O)([N-]S(=O)(=O)C(F)(F)F)C(F)(F)F.c1ccc2cc(C[N+]3(CCCCCCCCC[N+]4(Cc5ccc6ccccc6c5)CCCC4)CCCC3)ccc2c1, the activity coefficient is, setting by setting: (313 K) 3.83 ± 0.22; (323 K) 3.35 ± 0.19; (333 K) 2.98 ± 0.17; (343 K) 2.49 ± 0.16.
For the compound `CCO` [ethanol] + O=S(=O)([N-]S(=O)(=O)C(F)(F)F)C(F)(F)F.O=S(=O)([N-]S(=O)(=O)C(F)(F)F)C(F)(F)F.c1ccc2cc(C[N+]3(CCCCCCCCC[N+]4(Cc5ccc6ccccc6c5)CCCC4)CCCC3)ccc2c1, the activity coefficient was 1 ± 0.044 (313 K), 1.01 ± 0.045 (323 K), 0.937 ± 0.043 (333 K) and 0.891 ± 0.041 (343 K).
For the compound `O=C1CCCCC1` [cyclohexanone] + O=S(=O)([N-]S(=O)(=O)C(F)(F)F)C(F)(F)F.O=S(=O)([N-]S(=O)(=O)C(F)(F)F)C(F)(F)F.c1ccc2cc(C[N+]3(CCCCCCCCC[N+]4(Cc5ccc6ccccc6c5)CCCC4)CCCC3)ccc2c1, the activity coefficient stood at 0.998 ± 0.044 (313 K), 0.998 ± 0.044 (323 K), 0.999 ± 0.044 (333 K) and 1 ± 0.044 (343 K).
